Laboratory results: patent US10040838B2, “CRHR2 peptide agonists and uses thereof” (JANSSEN PHARMACEUTICA NV, priority 2008, dated 2018)
Several values for one entry are separate records, joined by “and”; a condition that tells them apart may be missing. Identical values can stand only once. No end group written: not given here.

Columns and labels:
[1] = target: T1, CRHR1 (Homo sapiens, UniProt P34998); experiment: Radioligand binding CRHR1 assay, [125I]-(Tyr0)-sauvagine; set-up: expressed in transfected cells; host or cells: cell membranes; conditions: Table 15; slope of competition curve
T1 sequence (P34998 24-415): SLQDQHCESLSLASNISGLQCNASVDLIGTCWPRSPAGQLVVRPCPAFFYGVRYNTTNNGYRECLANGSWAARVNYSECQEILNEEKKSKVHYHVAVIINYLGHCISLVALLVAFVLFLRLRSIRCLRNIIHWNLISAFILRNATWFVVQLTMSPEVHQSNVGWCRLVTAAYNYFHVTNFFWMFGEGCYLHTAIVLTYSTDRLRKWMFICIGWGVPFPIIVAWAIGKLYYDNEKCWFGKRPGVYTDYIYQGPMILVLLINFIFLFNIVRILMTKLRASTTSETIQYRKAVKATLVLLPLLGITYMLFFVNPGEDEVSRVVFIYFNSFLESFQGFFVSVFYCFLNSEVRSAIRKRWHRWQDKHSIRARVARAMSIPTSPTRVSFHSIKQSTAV
Procedure: The solution was then homogenized with a Polytron tissue grinder at a setting of 10 and 7×3 s (Brinkmann Instruments, Westbury, N.Y.). The homogenate was centrifuged at 4° Celsius at 800×g for 5 min with the pellet being discarded. […] All binding assays were conducted in 96-well Multiscreen GF/B filter plates (Millipore, Billericay, Mass., U.S.A.) that were pre-soaked in assay buffer with 0.3% PEI for 1 hour. […] The bound radioactivity was separated by filtration using a Multiscreen Resist manifold (Millipore Corp., Billerica, Mass., U.S.A). The filters were washed three times with ice-cold PBS at pH 7.5 and radioactivity retained on the filters was quantified by its liquid scintillation measured by a TopCount counter (Packard BioScience, Boston, Mass., U.S.A). All experiments were performed in triplicate.

[2] = target: T2, h-CRHR2b (Homo sapiens, UniProt Q13324); conditions: h-CRHR2b transfected HEK-293 cells, approximated from concentration response curves, Hsu et al. 2001; cited from earlier work
T2 sequence (Q13324 1-438 isoform Q13324-2): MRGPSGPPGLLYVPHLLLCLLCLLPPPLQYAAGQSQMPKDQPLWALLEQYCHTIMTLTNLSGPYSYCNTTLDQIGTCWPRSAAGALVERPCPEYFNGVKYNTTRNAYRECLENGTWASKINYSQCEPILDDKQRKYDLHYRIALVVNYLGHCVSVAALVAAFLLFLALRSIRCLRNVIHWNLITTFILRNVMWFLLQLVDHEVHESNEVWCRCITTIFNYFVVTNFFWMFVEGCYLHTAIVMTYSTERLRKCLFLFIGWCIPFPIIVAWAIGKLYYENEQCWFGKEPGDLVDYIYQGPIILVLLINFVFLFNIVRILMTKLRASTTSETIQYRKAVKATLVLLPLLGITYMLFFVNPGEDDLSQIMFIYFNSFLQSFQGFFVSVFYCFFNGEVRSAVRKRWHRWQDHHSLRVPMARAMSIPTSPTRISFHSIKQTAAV

[3] = test system: isolated rat aortic rings; experiment: Vascular smooth muscle relaxation, isolated rat aortic rings pre-contracted with phenylephrine
Excerpt: The ability of h-SCP (SEQ ID NO:1) to relax vascular smooth muscle was examined in isolated, rat aortic rings pre-contracted with phenylephrine (PE) (see FIG. 6). […] The responses caused by h-SCP (SEQ ID NO:1) were inhibited by anti-sauvagine-30 (SEQ ID NO:118).

[4] = target: T1, CRHR1; experiment: cAMP assay in h-CRHR1 transfected SK-N-MC cells; format: cell-based; set-up: expressed in transfected cells; conditions: for Experimental nH: Table 11, Hill slope
Procedure: Human CRHR1 (accession number X72304) or CRHR2 (accession number U34587) were cloned into pcDNA3.1/Zeo expression vector and stably transfected into SK-N-MC cells by electroporation. Cells were maintained in MEM w/Earl's Salt with 10% FBS, 50 I.U. penicillin, 50 μg/ml streptomycin, 2 mM L-glutamine, 1 mM sodium pyruvate and 0.1 mM nonessential amino acids, 600 μg/ml G418. Cells were grown at 37° C. in 5% CO2.
Cells were plated in 96-well tissue culture dishes (Biocoat from BD Biosciences) overnight at 50,000 cell/well. Cells were washed with PBS then resuspended in DMEM F-12 without phenol red, containing 10 μM isobutylmethylxanthine (IBMX). Cells were incubated with the peptides at concentrations ranging from 1 pM to 10 μM for 60 min at 37° Celsius. […] Forskolin (10 μM), a direct stimulant of adenylate cyclase, was used as positive control. The assays were stopped by the addition of 0.5 M HCl and mixing by orbital rotation for 2 h at 4° Celsius.
Transfected SK-N-MC cells were plated in 96-well Biocoat tissue culture dishes (BD Biosciences, San Jose, Calif., U.S.A) overnight at 50,000 cell/well. […]
Individual agonist concentration-response curve data were fitted to the Hill equation, see formula below, using GraphPad Prism (Graphpad Software, La Jolla, Calif., U.S.A.), to provide estimates of agonist concentration needed to generate one-half maximal response (A50), and the maximal asymptote (α) and Hill slope (nH) parameters. In this equation, [A] is the agonist concentration and E is the measured effect:
For display purposes the mean fitted parameter estimates were used to generate a single E/[A] curve shown superimposed on the mean experimental data. Potency estimates for agonists, pA50, are expressed as the negative logarithm of the midpoint of each curve and listed with their standard error of measurement (SEM).
Human and rat peptides (see Table 10) were used on the stimulation of h-CRHR1 or h-CRHR2 transfected SK-N-MC cells in the cAMP flash plate assay. […] Curves were calculated using non-linear regression sigmoidal concentration-response analysis calculation in GraphPad Prism.

[5] = target: T3, h-CRHR1 (Homo sapiens, UniProt P34998); conditions: h-CRHR1 transfected HEK-293 cells, approximated from concentration response curves, Hsu et al. 2001; cited from earlier work
T3 sequence (P34998 24-415): T1 sequence (P34998 24-415)

Experimental nH ([4]; listed as h-SRP) | Experimental nH [4] | Experimental αmax ([4]; Table 11, maximal asymptote) | Compound | CRHR1 nH [1] | Published pA50 [2] | pA50 relaxation ([3]; rat aortic rings pre-contracted with phenylephrine) | fold less potent than h-UCN2 ([3]; relaxation of rat aortic rings) | Published pA50 [5]
 |  |  | TKFTLSLDVPTNIMNLLFNIAKAKNLRAQAAANAHLMAQI-NH2 [SEQ ID NO: 1, TKFTLSLDVPTNIMNLLFNIAKAKNLRAQAAANAHLMAQI-NH2, reference compound] | 1.16 ± 0.65 | ~9^4 | 6.05±0.12 | 10 fold | 
1.61 and 1.33 and 1.26 |  |  | HPGSRIVLSLDVPIGLLQILLEQARARAAREQATTNARILARV-NH2 [SEQ ID NO: 117, HPGSRIVLSLDVPIGLLQILLEQARAPAAREQATTNARILARV-NH2, reference compound] |  | ~9^4 |  |  | >7^3
 | 1.15 | 99.61 | CC[C@H](C)[C@H](NC(=O)[C@H](CO)NC(=O)[C@H](CC(C)C)NC(=O)[C@@H]1CCCN1C(=O)[C@@H]1CCCN1C(=O)[C@H](CC(=O)O)NC(=O)[C@@H](N)CC(=O)O)C(=O)N[C@@H](CC(=O)O)C(=O)N[C@@H](CC(C)C)C(=O)N[C@H](C(=O)N[C@@H](Cc1ccccc1)C(=O)N[C@@H](Cc1c[nH]cn1)C(=O)N[C@@H](CC(C)C)C(=O)N[C@@H](CC(C)C)C(=O)N[C@@H](CCCNC(=N)N)C(=O)N[C@H](C(=O)N[C@@H](CC(C)C)C(=O)N[C@@H](CC(C)C)C(=O)N[C@@H](CCC(=O)O)C(=O)N[C@@H](CC(C)C)C(=O)N[C@@H](C)C(=O)N[C@@H](CCCNC(=N)N)C(=O)N[C@H](C(=O)N[C@@H](CCC(N)=O)C(=O)N[C@@H](CO)C(=O)N[C@@H](CCC(N)=O)C(=O)N[C@@H](CCCNC(=N)N)C(=O)N[C@@H](CCC(=O)O)C(=O)N[C@@H](CCCNC(=N)N)C(=O)N[C@@H](C)C(=O)N[C@@H](CCC(=O)O)C(=O)N[C@@H](CCC(N)=O)C(=O)N[C@@H](CC(N)=O)C(=O)N[C@@H](CCCNC(=N)N)C(=O)N[C@H](C(=O)N[C@H](C(=O)N[C@@H](Cc1ccccc1)C(=O)N[C@@H](CC(=O)O)C(=O)N[C@@H](CO)C(=O)N[C@H](C(N)=O)C(C)C)[C@@H](C)CC)[C@@H](C)CC)[C@@H](C)O)[C@@H](C)O)[C@@H](C)O [SEQ ID NO: 114, DDPPLSIDLTFHLLRTLLELARTQSQRERAEQNRIIFDSV-NH2] | 0.91 ± 0.27 |  |  |  | 
